# Data: patent publication US10799598B2, “Disulfide bridging conjugates” (Sorrento Therapeutics, Inc., priority 2017, dated 2020)
# Columns and labels:
# [1] = tested on: PC-3 (PSMA-) prostate cancer cells; assay: Luminescence cytotoxicity assay, absence of effector cells, PC-3; format: cell-based; settings: PC-3 (PSMA absent), up to 20 nM, 4 days incubation
# Procedure: (§1) Firefly luciferase transduced prostate cancer target cell lines were used for cytotoxicity assays, LNCaP (ATCC® CRL-1740™), PSMA+(cultured in RPMI-1640+10% non-heat-inactivated FBS+0.5 μg/mL Puromycin) and PC-3 (ATCC® CRL-1435™), PSMA-(cultured in RPMI-1640+10% heat-inactivated FBS+1.0 μg/mL Puromycin). Cells were harvested with TrypLE (ThermoFisher Scientific) then resuspended in fresh RPMI-1640+10% heat-inactivated FBS and plated at 4,000 cells/well in 100 μL. After overnight incubation at 37° C. in a humidified 5% CO2 incubator, serial dilutions of proteins in RPMI-1640+10% heat-inactivated medium (50 μL) were added to the assay plates at the indicated concentrations. In experiments utilizing effector cells, freshly thawed peripheral blood mononuclear cells (PBMCs) were washed with media and added to the assay plates at 40,000 cells in 50 μL to obtain an effector:target ratio of 10:1. After 4 days incubation, 90 μL was removed from assay plates and 90 μL ONE Glo Luciferase Assay Reagent (Promega # E6120) was mixed with the samples and incubated at room temperature for 10 min. Samples were transferred to white 96-well flat bottom plates for luminescence measurements using a PerkinElmer EnSpire multimode plate reader. Data was analyzed using GraphPad Prism software.
# [2] = tested on: LNCaP (PSMA+) prostate cancer cells; assay: Luminescence cytotoxicity assay, absence of effector cells, LNCaP; format: cell-based; settings: LNCaP (PSMA present), up to 20 nM, 4 days incubation
# Procedure: as §1
smiles,measurement,setting,value
"O=C(O)CCC(NC(=O)NC(CCC(=O)O)C(=O)O)C(=O)O (centres unmarked) [DUPA small molecule, 2-[3-(1,3-dicarboxypropyl)ureido]pentanedioic acid]",dose-dependent cell killing activity,[1],No dose-dependent cell killing activity was observed
same,dose-dependent cell killing activity,[2],No dose-dependent cell killing activity was observed
